# Reference: ChEMBL document CHEMBL1143011, “NMR screening applied to the fragment-based generation of inhibitors of creatine kinase exploiting a new interaction proximate to the ATP binding site” (J Med Chem, 2007)
# Assays:
# [1] = target: Creatine kinase M-type (Oryctolagus cuniculus) (UniProt P00563); test: Inhibition of rabbit muscle creatine kinase at 27.5 uM in presence of 400 uM MgATP
# [2] = target: T1, Creatine kinase M-type (Oryctolagus cuniculus, UniProt P00563); test: Inhibition of rabbit muscle creatine kinase-MgATP complex by pH-stat assay
# [3] = target: T1, Creatine kinase M-type; test: Inhibition of rabbit muscle creatine kinase by pH-stat assay
# T1 sequence (P00563 whole entry): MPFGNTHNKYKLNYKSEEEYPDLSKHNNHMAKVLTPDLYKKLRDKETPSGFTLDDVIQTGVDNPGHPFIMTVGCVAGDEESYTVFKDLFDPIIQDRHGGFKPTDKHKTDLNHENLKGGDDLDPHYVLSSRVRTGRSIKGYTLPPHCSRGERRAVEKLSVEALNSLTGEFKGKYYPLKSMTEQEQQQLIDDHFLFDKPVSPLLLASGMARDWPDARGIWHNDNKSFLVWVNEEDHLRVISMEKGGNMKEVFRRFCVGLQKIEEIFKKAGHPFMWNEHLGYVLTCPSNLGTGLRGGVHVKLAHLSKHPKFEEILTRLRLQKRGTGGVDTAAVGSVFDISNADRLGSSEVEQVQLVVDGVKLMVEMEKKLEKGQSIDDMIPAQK
# Chain of Creatine kinase M-type (Oryctolagus cuniculus) (P00563 whole entry): as above
SMILES,inhibition [1] [%],Ki [2] [µM],IC50 [3] [µM],Ki [3] [µM]
O=C(NCc1ccc(-c2ccccc2)cc1)c1ccc(-c2ccc(C(=O)O)o2)cc1,63,,,
O=C(Nc1ccc(C(=O)c2ccccc2)cc1)c1ccc(-c2ccc(C(=O)O)o2)cc1,35,70,50,25
O=C(c1ccccc1)c1ccc(-c2ccc(-c3ccc(C(=O)O)o3)cc2)cc1,63,,,
O=C(NCc1ccccc1)c1ccc(-c2ccc(C(=O)O)o2)cc1,20,,,
